Reference: patent US11226337B2, “Chemoproteomic profiling of protein electrophilic and oxidative post-translational modifications” (Zenagem, LLC, priority 2017, dated 2022)

Legend:
Experiment in all cases: SILAC RP-ABPP
Type in all cases: cell-based
[1] = target: T1, EPDR1 Mammalian ependyminrelated (Q9UM22) (Homo sapiens, UniProt Q9UM22); conditions: SILAC H/L, MDA-MB-231
T1 construct: shared by both the endogenous and recombinant forms of these proteins; endogenous in cells; host or cells: HEK293T and MDA-MB-231
T1 sequence (Q9UM22 38-224): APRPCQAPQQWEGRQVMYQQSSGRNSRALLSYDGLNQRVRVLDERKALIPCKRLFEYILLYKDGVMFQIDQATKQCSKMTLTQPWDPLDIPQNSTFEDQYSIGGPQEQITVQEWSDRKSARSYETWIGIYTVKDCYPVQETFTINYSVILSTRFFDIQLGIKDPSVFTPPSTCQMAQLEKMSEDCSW

[2] = target: T2, FASTICD5 FAST kinase domain containing (Q7L8L6) (Homo sapiens, UniProt Q7L8L6); conditions: SILAC H/L, HEK293T
T2 construct: shared by both the endogenous and recombinant forms of these proteins; endogenous in cells; host or cells: HEK293T and MDA-MB-231
T2 sequence (Q7L8L6 28-764): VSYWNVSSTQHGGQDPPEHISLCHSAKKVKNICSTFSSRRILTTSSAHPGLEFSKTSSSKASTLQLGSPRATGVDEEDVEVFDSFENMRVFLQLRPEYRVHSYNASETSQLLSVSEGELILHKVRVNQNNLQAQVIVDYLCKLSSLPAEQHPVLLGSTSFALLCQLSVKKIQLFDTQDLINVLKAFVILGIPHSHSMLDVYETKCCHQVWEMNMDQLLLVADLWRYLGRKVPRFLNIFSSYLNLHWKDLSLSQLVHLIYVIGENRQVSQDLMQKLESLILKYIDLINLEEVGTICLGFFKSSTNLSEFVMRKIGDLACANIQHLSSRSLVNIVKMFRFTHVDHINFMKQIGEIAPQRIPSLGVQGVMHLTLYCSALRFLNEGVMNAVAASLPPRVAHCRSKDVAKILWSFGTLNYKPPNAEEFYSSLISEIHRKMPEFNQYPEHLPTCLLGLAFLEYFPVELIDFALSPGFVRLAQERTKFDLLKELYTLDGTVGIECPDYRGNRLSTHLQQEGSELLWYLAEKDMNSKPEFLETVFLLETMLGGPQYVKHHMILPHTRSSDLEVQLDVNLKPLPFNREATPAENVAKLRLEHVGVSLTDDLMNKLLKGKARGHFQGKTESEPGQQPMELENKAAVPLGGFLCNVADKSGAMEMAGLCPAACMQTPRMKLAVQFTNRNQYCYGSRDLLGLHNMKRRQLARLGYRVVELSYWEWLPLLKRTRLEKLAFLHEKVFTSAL

[3] = target: T3, CTSD Cathepsin D (P07339) (Homo sapiens, UniProt P07339); conditions: SILAC H/L
T3 construct: In Situ Labelling of Cells with Hydrazine Probes for MS Experiments; endogenous in cells; host or cells: HEK293T and MDA-MB-231
T3 sequence (P07339 65-412): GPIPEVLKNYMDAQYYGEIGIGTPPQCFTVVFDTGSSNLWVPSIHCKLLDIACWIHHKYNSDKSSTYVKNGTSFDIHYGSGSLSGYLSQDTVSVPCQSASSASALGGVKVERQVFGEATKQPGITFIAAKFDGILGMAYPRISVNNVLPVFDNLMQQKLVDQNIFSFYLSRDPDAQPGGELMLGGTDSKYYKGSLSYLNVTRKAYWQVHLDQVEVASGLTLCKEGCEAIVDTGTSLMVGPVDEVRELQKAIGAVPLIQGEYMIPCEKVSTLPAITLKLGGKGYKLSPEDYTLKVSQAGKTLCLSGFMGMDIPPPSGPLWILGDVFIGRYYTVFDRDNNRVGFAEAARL

Structure (SMILES)	enrichment ratioavg ([1]; probe 1 3 mM 0.5 h vs probe 3)	competition ratioavg ([1]; probe 1 vs probe 1+10x probe 3)	enrichment ratioavg ([2]; probe 1 3 mM 0.5 h vs probe 3)	competition ratioavg ([2]; probe 1 vs probe 1+10x probe 3)	enrichment ratioavg ([3]; probe 1 3 mM 0.5 h vs probe 3, HEK293T)	competition ratioavg ([3]; probe 1 vs probe 1+10x probe 3, HEK293T)	enrichment ratioavg ([1]; probe 2 1 mM 0.5 h vs probe 4)	competition ratioavg ([1]; probe 2 vs probe 2+10x probe 4)	enrichment ratioavg ([2]; probe 2 1 mM 0.5 h vs probe 4)	competition ratioavg ([2]; probe 2 vs probe 2+10x probe 4)	enrichment ratioavg ([3]; probe 2 1 mM 0.5 h vs probe 4, MDA-MB-231)	competition ratioavg ([3]; probe 2 vs probe 2+10x probe 4, MDA-MB-231)
C#CCNN.Cl [probe 1, prop-2-yn-1-ylhydrazine hydrochloride]	20	20	18	3	13	1						
C#CCCNC(=O)c1ccc(NN)cc1.Cl [probe 2, N-(but-3-yn-1-yl)-4-hydrazinylbenzamide hydrochloride]							20	5	10	3	16	4
